Experimental data published in patent publication US20250289786A1, “CHLORINATED MONOCARBONYL CURCUMIN COMPOUNDS, PREPARATION METHOD, AND APPLICATION” (Southwest Medical University, priority 2024, published 2025).

Experiments:
[1] = Solubility detection of CAK01-CAK07; type: physicochemical
Text: The chlorinated monocarbonyl curcumin compounds CAK01-CAK07 prepared under the conditions of Example 1 were taken for nuclear magnetic resonance, mass spectrometry, solubility, and melting point detection.

PC12 cells [2] = test: Inhibition of corticosterone (CORT)-induced PC12 cell damage; type: cell-based, rat; details: 24 h; for effect on viability of CORT-damaged PC12 cells: 3.75-60 μM drug with 514.6 μM CORT, in words
PC12 cells [3] = test: MTT toxicity (safety evaluation) on PC12 nerve cells; type: cell-based; details: for cytotoxicity to PC12 cells: 3.75-60 μM, 24 h and 48 h, in words
Procedure: The toxicity of each drug to PC12 cells was determined by MTT assay. The principle of the MTT colorimetric method: there is succinate dehydrogenase in the mitochondria of living cells, which can make exogenous MTT become blue-purple crystal formazan insoluble in water, this phenomenon cannot be observed in dead cells. The blue-purple crystal formazan can be dissolved by DMSO, and the absorbance value is measured by a microplate reader at a wavelength of 490 nm, which in turn reflects the number of living cells. […] The operation method is as follows:
The cells were resuscitated with DMEM high glucose medium containing 10% fetal bovine serum and cultured in a 5% CO2 cell incubator at 37° C., when the cells grew to the logarithmic growth phase, they were inoculated into a 96-well plate and cultured for 24 hours, each well was added with 100 μL of each compound solution at the corresponding gradient concentration (60, 30, 15, 7.5, 3.75 μM), after incubation in the incubator for 24 h or 48 h, 20 μL of MTT was added to continue incubation for 4 h, the supernatant was discarded and 150 μL of DMSO was added to dissolve the blue-purple crystals, after shaking for 10 min, the cell viability was detected by a microplate reader, and classified according to the cytotoxicity standard. The relevant calculation formula is as follows: […]

PC12 cells [4] = test: Inhibition of H2O2-induced oxidative damage in PC12 cells; type: cell-based, rat; details: for effect on survival of H2O2-damaged PC12 cells: drug concentration below 30 μM, 24 h, in words
Procedure: After 24 hours of incubation in the incubator, the relative proliferation rates of the cells were calculated according to the method under Section 2.1.

[5] = ABTS free radical capture ability; type: biochemical; details: 20 min reaction in the dark
Procedure: 66.2 mg of K2S2O8 was weighed and placed in a 100 mL volumetric flask, pure water was added to the scale line to prepare a 2.45 mmol/L K2S2O8 solution. 192 mg of ABTS was accurately weighed and placed in a 25 mL volumetric flask, and the newly prepared K2S2O8 solution was added for dissolving and constant volume dilution, after standing in the dark for 20 h, the ABTS mother liquor was obtained. Before use, to make the measured value more accurate, the ABTS mother liquor needs to be diluted with a PBS solution of pH7.4 until the absorbance range of the ABTS working solution at 734 nm is 0.70±0.02.
Drug concentration screening: To avoid the complete removal of free radicals by excessive drug concentration and the inability to compare the ability to capture ABTS free radicals, a preliminary screening of drug concentration is required before the formal test. A gradient concentration of compound solution was prepared, and a gradient concentration of Vit C solution was prepared as a positive control. A total of 450 μL of ABTS working solution was accurately absorbed into a 1.5 mL EP tube, and 150 μL of the gradient solution of each group of drugs was added, after 20 min of reaction in the dark, 150 μL of the reaction solution was taken and placed in a 96-well plate, the absorbance was measured by a microplate reader. Three duplicate wells were set for each concentration, and the drug concentration with absorbance between 0.2-0.7 was selected for subsequent determination.
Determination operation: After the drug concentration screening was completed, 7 concentration gradient groups were set within this concentration range. A total of 450 μL of ABTS working solution was accurately absorbed into a 1.5 mL EP tube, and 150 μL of the gradient solution of each group of drugs was added. After 20 min of reaction in the dark, 150 μL of the reaction solution was taken and placed in a 96-well plate, the absorbance was measured by a microplate reader. Three duplicate wells were set for each concentration, the positive control group was a gradient solution of Vit C, and the blank control group was an equal volume of anhydrous ethanol.

SMILES | solubility [1] [mg/100 g] | Rank (cytotoxicity standard) 24 h (PC12 cells [3]; PC12, 3.75 μM) | Relative growth rate (%) 24 h (PC12 cells [3]; PC12, 3.75 μM) [%] | Rank (cytotoxicity standard) 48 h (PC12 cells [3]; PC12, 3.75 μM) | Relative growth rate (%) 48 h (PC12 cells [3]; PC12, 3.75 μM) [%] | Rank (cytotoxicity standard) 24 h (PC12 cells [3]; PC12, 7.5 μM) | Relative growth rate (%) 24 h (PC12 cells [3]; PC12, 7.5 μM) [%] | Rank (cytotoxicity standard) 48 h (PC12 cells [3]; PC12, 7.5 μM) | Relative growth rate (%) 48 h (PC12 cells [3]; PC12, 7.5 μM) [%] | Rank (cytotoxicity standard) 24 h (PC12 cells [3]; PC12, 15 μM) | Relative growth rate (%) 24 h (PC12 cells [3]; PC12, 15 μM) [%] | Rank (cytotoxicity standard) 48 h (PC12 cells [3]; PC12, 15 μM) | Relative growth rate (%) 48 h (PC12 cells [3]; PC12, 15 μM) [%] | Rank (cytotoxicity standard) 24 h (PC12 cells [3]; PC12, 30 μM) | Relative growth rate (%) 24 h (PC12 cells [3]; PC12, 30 μM) [%] | Rank (cytotoxicity standard) 48 h (PC12 cells [3]; PC12, 30 μM) | Relative growth rate (%) 48 h (PC12 cells [3]; PC12, 30 μM) [%] | Rank (cytotoxicity standard) 24 h (PC12 cells [3]; PC12, 60 μM) | Relative growth rate (%) 24 h (PC12 cells [3]; PC12, 60 μM) [%] | IC50 values of ABTS captured [5] [µg/mL] | other results
O=C1/C(=C/c2cc(Cl)c(O)c(Cl)c2)CNC/C1=C\c1cc(Cl)c(O)c(Cl)c1 [CAK01, 3,5-bis ((E)-3,5-dichloro-4-hydroxybenzylidene) piperidin-4-one] | 0.17 | 0 | 104.22 ± 1.99 | 1 | 99.22 ± 1.65 | 0 | 101.17 ± 2.97 | 0 | 100.73 ± 3.19 | 1 | 99.46 ± 2.16 | 1 | 99.33 ± 1.79 | 0 | 101.62 ± 3.23 | 0 | 100.73 ± 2.88 | 0 | 104.04 ± 1.43 | 79.62 | effect on viability of CORT-damaged PC12 cells (PC12 cells [2]): did not show the potential to restore cell viability; cytotoxicity to PC12 cells (PC12 cells [3]): no significant cytotoxicity; Rank (cytotoxicity standard) 48 h (PC12 cells [3]; PC12, 60 μM): 1; Relative growth rate (%) 48 h (PC12 cells [3]; PC12, 60 μM): 85.41 ± 3.45%; effect on survival of H2O2-damaged PC12 cells (PC12 cells [4]): increased the survival rate of cells in a concentration-dependent manner
CN1C/C(=C\c2cc(Cl)c(O)c(Cl)c2)C(=O)/C(=C/c2cc(Cl)c(O)c(Cl)c2)C1 [CAK02, 3,5-bis ((E)-3,5-dichloro-4-hydroxybenzylidene)-1-methylpiperidin-4-one] | 0.09 | 0 | 102.93 ± 1.13 | 1 | 98.35 ± 1.84 | 1 | 99.40 ± 4.11 | 0 | 100.22 ± 3.73 | 1 | 95.08 ± 10.06 | 1 | 95.22 ± 1.86 | 1 | 99.48 ± 1.91 | 1 | 97.59 ± 8.36 | 1 | 88.18 ± 0.93 | 223.7 | effect on viability of CORT-damaged PC12 cells (PC12 cells [2]): did not show the potential to restore cell viability; cytotoxicity to PC12 cells (PC12 cells [3]): no significant cytotoxicity; Rank (cytotoxicity standard) 48 h (PC12 cells [3]; PC12, 60 μM): 1; Relative growth rate (%) 48 h (PC12 cells [3]; PC12, 60 μM): 98.48 ± 2.00%; effect on survival of H2O2-damaged PC12 cells (PC12 cells [4]): increased the survival rate of cells in a concentration-dependent manner
CCN1C/C(=C\c2cc(Cl)c(O)c(Cl)c2)C(=O)/C(=C/c2cc(Cl)c(O)c(Cl)c2)C1 [CAK03, 3,5-bis ((E)-3,5-dichloro-4-hydroxybenzylidene)-1-ethylpiperidin-4-one] | 0.08 | 1 | 96.25 ± 0.78 | 1 | 98.96 ± 1.23 | 1 | 87.65 ± 5.86 | 1 | 94.59 ± 1.02 | 1 | 88.25 ± 5.62 | 1 | 89.84 ± 0.82 | 1 | 82.96 ± 2.83 | 1 | 95.25 ± 9.43 | 1 | 77.51 ± 4.22 | 46.56 | relative cell proliferation rate (PC12 cells [2]; 15 μM drug with 514.6 μM CORT): 59.15±0.51%; relative cell proliferation rate (PC12 cells [2]; 60 μM drug with 514.6 μM CORT): 59.92±1.53%; Rank (cytotoxicity standard) 48 h (PC12 cells [3]; PC12, 60 μM): 3; Relative growth rate (%) 48 h (PC12 cells [3]; PC12, 60 μM): 30.33±6.54%; effect on survival of H2O2-damaged PC12 cells (PC12 cells [4]): increased the survival rate of cells in a concentration-dependent manner
CC(C)N1C/C(=C\c2cc(Cl)c(O)c(Cl)c2)C(=O)/C(=C/c2cc(Cl)c(O)c(Cl)c2)C1 [CAK04, 3,5-bis ((E)-3,5-dichloro-4-hydroxybenzylidene)-1-isopropylpiperidin-4-one] | 0.04 | 1 | 98.54 ± 5.42 | 0 | 100.97 ± 3.25 | 1 | 99.95 ± 5.76 | 0 | 100.45 ± 2.96 | 1 | 99.06 ± 5.73 | 1 | 99.75 ± 1.57 | 1 | 99.66 ± 2.34 | 1 | 98.02 ± 3.00 | 0 | 101.64 ± 3.95 | 57.78 | effect on viability of CORT-damaged PC12 cells (PC12 cells [2]): did not show the potential to restore cell viability; cytotoxicity to PC12 cells (PC12 cells [3]): no significant cytotoxicity; Rank (cytotoxicity standard) 48 h (PC12 cells [3]; PC12, 60 μM): 0; Relative growth rate (%) 48 h (PC12 cells [3]; PC12, 60 μM): 100.17 ± 2.92%; relative proliferation rate of cells (PC12 cells [4]; 30 μM drug with 585.8 μM H2O2, 24 h): 52.12±0.88%; effect on survival of H2O2-damaged PC12 cells (PC12 cells [4]): increased the survival rate of cells in a concentration-dependent manner
O=C1O[C@H]([C@@H](O)CO)C(O)=C1O [Vit C, ascorbic acid, reference compound] | – | – | – | – | – | – | – | – | – | – | – | – | – | – | – | – | – | – | – | 54.54 | –
